Experimental data reported in patent EP0985409A1, “Cosmetic use of fatty acids” (Shiseido International France SA, priority 1998, dated 2000).
pKi: −log10 of the molar value.

Legend:
MMP-9 [1] = molecular target: T1, MMP-9 (Homo sapiens, UniProt P14780); test: Inhibition of MMP enzymatic activity, hydrolysis of fluorescent synthetic substrate; type: biochemical; settings: MMP-9, Gélatinase B
Text: (§1) On a démontré l'effet d'inhibition d'acides gras selon l'invention vis à vis de différentes métalloprotéinases matricielles. A cet effet, on a déterminé l'activité enzymatique de ces MMPs en utilisant un substrat synthétique fluorescent, le (7- méthoxycoumarine-4-yl) acétyl-Pro-Leu-Gly-Leu-(3-[2,4-dinitrophényl]-L-2,3-diaminopropionyl)-Ala-ArgNH2. Les MMPs peuvent cliver de façon spécifique la liaison amide qui lie les acides aminés Gly et Leu de ce substrat.
(§2) L'hydrolyse s'accompagne d'une augmentation sensible de la fluorescence qui peut être suivie et quantifiée à l'aide d'un spectrofluorimètre aux longueurs d'onde choisies. Suite à la rupture de la liaison Gly-Leu, le groupement dinitrophényl ne peut plus masquer la fluorescence du groupement 7-méthoxycoumarine.
(§3) On a réalisé cette hydrolyse du substrat par la MMP-2 et la MMP-9 en absence ou en présence de différentes concentrations d'acides gras selon l'invention. Les constantes d'inhibition (Ki) de l'activité enzymatique ont pu être ainsi déterminées. Les résultats obtenus figurent dans le Tableau I ci-dessous. Tableau I
Target sequence in this assay (P14780 94-707): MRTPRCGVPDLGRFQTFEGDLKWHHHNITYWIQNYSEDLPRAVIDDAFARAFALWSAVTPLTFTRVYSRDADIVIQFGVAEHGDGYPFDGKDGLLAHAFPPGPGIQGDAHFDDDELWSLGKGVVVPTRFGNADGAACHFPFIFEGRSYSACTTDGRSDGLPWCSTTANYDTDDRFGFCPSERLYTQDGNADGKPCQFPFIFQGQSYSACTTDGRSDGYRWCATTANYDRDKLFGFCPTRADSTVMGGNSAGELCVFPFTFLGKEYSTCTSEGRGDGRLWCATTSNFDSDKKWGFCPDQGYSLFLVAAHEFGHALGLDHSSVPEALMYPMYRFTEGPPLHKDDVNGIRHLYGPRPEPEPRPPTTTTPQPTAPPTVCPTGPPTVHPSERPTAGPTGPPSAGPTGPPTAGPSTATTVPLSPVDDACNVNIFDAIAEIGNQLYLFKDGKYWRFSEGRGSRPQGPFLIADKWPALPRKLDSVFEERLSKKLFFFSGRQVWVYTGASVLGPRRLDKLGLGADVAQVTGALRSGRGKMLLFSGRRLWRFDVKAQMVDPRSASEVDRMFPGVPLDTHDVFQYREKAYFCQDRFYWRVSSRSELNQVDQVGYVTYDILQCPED

MMP-2 [2] = molecular target: T2, MMP-2 (Homo sapiens, UniProt P08253); test: as above; type: biochemical; settings: MMP-2, Gélatinase A
T2 sequence (P08253 110-660): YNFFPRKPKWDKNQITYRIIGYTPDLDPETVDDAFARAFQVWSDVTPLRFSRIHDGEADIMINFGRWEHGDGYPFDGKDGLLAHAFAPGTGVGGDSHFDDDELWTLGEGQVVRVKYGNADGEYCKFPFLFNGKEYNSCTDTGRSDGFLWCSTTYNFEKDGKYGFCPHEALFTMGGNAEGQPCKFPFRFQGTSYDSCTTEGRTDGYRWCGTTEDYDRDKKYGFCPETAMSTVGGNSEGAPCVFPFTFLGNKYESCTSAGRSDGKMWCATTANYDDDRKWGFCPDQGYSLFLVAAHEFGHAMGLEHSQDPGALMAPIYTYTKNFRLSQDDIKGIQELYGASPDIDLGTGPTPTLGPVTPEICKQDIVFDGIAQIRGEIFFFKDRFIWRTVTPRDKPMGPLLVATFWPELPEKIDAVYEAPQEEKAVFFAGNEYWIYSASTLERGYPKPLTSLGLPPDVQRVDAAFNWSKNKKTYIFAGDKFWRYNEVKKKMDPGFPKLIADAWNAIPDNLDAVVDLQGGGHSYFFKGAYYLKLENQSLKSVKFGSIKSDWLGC
Text: as §1, §2, §3

élastase leucocytaire = molecular target: T3, élastase leucocytaire (Homo sapiens, UniProt P08246); test: Ex vivo protection of elastic fibres: skin sections pre-incubated with fatty acid, then enzyme; type: biochemical, humaine; settings: section pre-incubated with fatty acid; degradation of elastic fibres by élastase leucocytaire; concentration not given
T3 construct: L'enzyme sous sa forme activée a été incubée pendant 15 min
T3 sequence (P08246 30-267): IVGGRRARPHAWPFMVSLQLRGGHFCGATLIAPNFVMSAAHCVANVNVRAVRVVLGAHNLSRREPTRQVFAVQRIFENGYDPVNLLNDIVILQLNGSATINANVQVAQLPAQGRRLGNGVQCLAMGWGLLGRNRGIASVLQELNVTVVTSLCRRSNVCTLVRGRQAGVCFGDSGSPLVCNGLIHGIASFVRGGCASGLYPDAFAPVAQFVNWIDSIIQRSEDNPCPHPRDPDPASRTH
Text: (§4) Les études ex vivo ont été réalisées sur des coupes de peau humaine issues de prépuces d'enfants âgés de 10 à 24 mois. Les coupes mises en oeuvre étaient des coupes de congélation de 8 µm d'épaisseur, sériées.
(§5) L'effet protecteur de la matrice extra-cellulaire a été déterminé de la façon suivante : les lames portant les coupes de peau ont été incubées sous agitation douce pendant 4 heures dans l'éthanol pur contenant l'acide gras selon l'invention à la concentration désirée. Puis les coupes ont été rincées et séchées. L'enzyme a alors été déposée sur la coupe, la lame a été mise à incuber en atmosphère humide à 37°C pendant 4 à 18 heures. A la fin de l'incubation, les lames ont été colorées avec les colorants spécifiques de l'élastine ou des collagènes mentionnés plus haut.
Les résultats obtenus ont été déterminés selon le principe de quantification suivant: les fibres élastiques ont été colorées de façon spécifique par la + catéchine, et ont été quantifiées grâce à un système morphométrique précis et automatisé. Les lames ont été observées sous microscope équipé d'une caméra. Les images générées ont été converties en niveaux de gris correspondant aux composants à étudier. Les plus petites particules ne correspondant pas à ces éléments ont été éliminées de l'analyse. […] L'aire occupée par les trousseaux collagéniques a pu être quantifiée selon la même procédure. […]

MMP-2 [3] = molecular target: T2, MMP-2; test: Ex vivo inhibition of enzyme activity on human skin sections: collagen bundle hydrolysis, enzyme pre-incubated with fatty acid; type: biochemical, humaine; parameters: L'enzyme sous sa forme activée a été incubée pendant 15 min; settings: for inhibition at 1 µM / inhibition at 10 µM: hydrolysis of collagen bundles by MMP-2, human skin sections, read-out: % d'inhibition; for hydrolyse des trousseaux collagéniques (observation): MMP-2 pre-incubated with fatty acid
Procedure: as §4
(§6) L'effet inhibiteur de l'activité enzymatique a été déterminé de la manière suivante : les enzymes testées étaient les suivantes : MMP-2, MMP-9 ou élastase leucocytaire. L'enzyme sous sa forme activée a été incubée pendant 15 min avec différentes concentrations d'acides gras selon l'invention, puis la solution contenant l'enzyme et l'inhibiteur a été déposée sur la coupe de peau humaine et incubée 4 à 18 heures à 37°C dans une atmosphère humide.
(§7) A la fin de l'incubation, les coupes ont été colorées avec des colorants spécifiques. Le colorant de l'élastine est la + catéchine et celui des collagènes est le rouge sirius.
(§8) Les résultats obtenus ont été déterminés selon le principe de quantification suivant: les fibres élastiques ont été colorées de façon spécifique par la + catéchine, et ont été quantifiées grâce à un système morphométrique précis et automatisé. Les lames ont été observées sous microscope équipé d'une caméra. Les images générées ont été converties en niveaux de gris correspondant aux composants à étudier. Les plus petites particules ne correspondant pas à ces éléments ont été éliminées de l'analyse. Un programme spécifique a permis de calculer ensuite la surface relative occupée par les fibres. Avec les fibres élastiques on a pu calculer l'aire et également le volume occupé par celles-ci, puisque leur longueur est supérieure à leur largeur. L'aire occupée par les trousseaux collagéniques a pu être quantifiée selon la même procédure.
On a étudié l'activité protéolytique de la MMP-2 sur les collagènes. Lorsque la MMP-2 est ajoutée sur les coupes de peau, on a pu observer une hydrolyse des trousseaux collagéniques, ceux-ci étant moins denses et moins nombreux. De plus l'épiderme était décollé. L'hydrolyse était de 34 % environ.

MMP-9 [4] = molecular target: T1, MMP-9; test: Ex vivo inhibition of enzyme activity on human skin sections: elastic fibre hydrolysis, enzyme pre-incubated with fatty acid; type: biochemical, humaine; parameters: L'enzyme sous sa forme activée a été incubée pendant 15 min; settings: for inhibition at 1 µM / inhibition at 10 µM: hydrolysis of elastic fibres by MMP-9, human skin sections, read-out: % d'inhibition; for inhibition de l'activité de la MMP-9 (observation): MMP-9 pre-incubated with fatty acid, elastic fibres
Procedure: as §4, §6, §7, §8
Target sequence in this assay (P14780 107-707 limits assumed): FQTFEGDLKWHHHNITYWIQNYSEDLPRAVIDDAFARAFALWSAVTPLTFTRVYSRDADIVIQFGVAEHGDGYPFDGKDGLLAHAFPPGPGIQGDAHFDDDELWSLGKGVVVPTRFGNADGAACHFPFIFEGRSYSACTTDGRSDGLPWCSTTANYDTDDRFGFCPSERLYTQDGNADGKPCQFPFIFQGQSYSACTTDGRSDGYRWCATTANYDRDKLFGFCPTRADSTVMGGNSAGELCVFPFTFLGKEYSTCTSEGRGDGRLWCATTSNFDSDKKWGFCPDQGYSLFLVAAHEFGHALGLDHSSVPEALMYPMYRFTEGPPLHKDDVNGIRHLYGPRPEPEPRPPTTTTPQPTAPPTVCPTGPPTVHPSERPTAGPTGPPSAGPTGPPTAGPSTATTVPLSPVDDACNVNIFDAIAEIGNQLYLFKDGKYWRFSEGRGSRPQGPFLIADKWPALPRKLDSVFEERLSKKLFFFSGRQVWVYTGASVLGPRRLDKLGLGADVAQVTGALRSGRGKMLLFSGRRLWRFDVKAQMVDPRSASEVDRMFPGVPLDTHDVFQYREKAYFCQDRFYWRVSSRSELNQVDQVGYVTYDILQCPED
Dans le cas de la MMP-9, on a étudié l'hydrolyse des fibres élastiques. En effet, à l'inverse de la MMP-2, la MMP-9 possède essentiellement une activité élastinolytique in situ.
Au niveau des fibres élastiques matures du derme moyen, on a observé une hydrolyse par la MMP-9. Les fibres élastiques étaient courtes et en paquets au lieu d'être longues et bien individualisées. L'hydrolyse était de 35 % environ. […] La quantification de l'hydrolyse des fibres élastiques par la MMP-9 en fonction des différents traitements a permis de déterminer le pourcentage d'inhibition de l'activité enzymatique. Les résultats obtenus figurent dans le Tableau III suivant : Tableau III

MMP-9 [5] = molecular target: T1, MMP-9; test: Ex vivo protection of extracellular matrix fibres: skin sections pre-incubated with fatty acid, then enzyme; type: biochemical, humaine; parameters: L'enzyme sous sa forme activée a été incubée pendant 15 min; settings: then MMP-9; for % de protection: 10 µM
Text: as §4, §5, §8
Target sequence in this assay (P14780 107-707 limits assumed): as above
Les résultats obtenus figurent dans le Tableau V ci-après : Tableau V

MMP-2 [6] = molecular target: T2, MMP-2; test: as above; type: biochemical, humaine; parameters: L'enzyme sous sa forme activée a été incubée pendant 15 min; settings: then MMP-2; for % de protection: 10 µM
Text: as §4, §5, §8
Les trousseaux étaient plus denses, plus épais, leurs extrémités étaient moins effilochées, le réseau apparaissait plus dense. […] La quantification des fibres a permis d'obtenir les résultats figurant dans le Tableau IV suivant : Tableau IV

MMP-3 = MMP-3 (Homo sapiens, UniProt P08254); test: Inhibition of MMP enzymatic activity, hydrolysis of fluorescent synthetic substrate; type: biochemical; settings: MMP-3, Stromélysine-1
Sequence of MMP-3 (P08254 100-477): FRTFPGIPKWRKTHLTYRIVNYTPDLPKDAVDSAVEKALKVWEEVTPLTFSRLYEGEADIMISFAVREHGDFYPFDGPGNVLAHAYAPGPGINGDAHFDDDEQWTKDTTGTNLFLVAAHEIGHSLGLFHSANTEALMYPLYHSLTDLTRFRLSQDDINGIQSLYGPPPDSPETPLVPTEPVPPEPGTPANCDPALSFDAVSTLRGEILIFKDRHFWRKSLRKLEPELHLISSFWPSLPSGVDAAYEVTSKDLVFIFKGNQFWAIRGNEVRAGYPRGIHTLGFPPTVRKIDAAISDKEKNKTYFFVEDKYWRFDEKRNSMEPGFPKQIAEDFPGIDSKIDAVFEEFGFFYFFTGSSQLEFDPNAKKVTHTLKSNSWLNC

MMP-1 = molecular target: T4, MMP-1 (Homo sapiens, UniProt P03956); test: as above; type: biochemical; settings: MMP-1, Collagénase intersticielle
T4 sequence (P03956 100-469): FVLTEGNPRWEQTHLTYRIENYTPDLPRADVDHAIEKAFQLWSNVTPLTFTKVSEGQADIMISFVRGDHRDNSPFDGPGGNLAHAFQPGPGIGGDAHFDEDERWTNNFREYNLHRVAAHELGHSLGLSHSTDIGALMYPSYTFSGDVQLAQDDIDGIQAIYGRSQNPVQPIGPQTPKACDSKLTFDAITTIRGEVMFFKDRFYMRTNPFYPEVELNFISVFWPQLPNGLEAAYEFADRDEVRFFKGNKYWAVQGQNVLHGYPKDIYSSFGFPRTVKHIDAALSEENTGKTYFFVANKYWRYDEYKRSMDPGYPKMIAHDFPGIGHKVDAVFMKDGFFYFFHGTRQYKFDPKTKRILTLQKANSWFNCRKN

## CC/C=C/C=C/C=C/C=C\CCCCCCCC(=O)O [acide cis-parinarique]
MMP-9 [1]
  pKi: 4.85
MMP-2 [2]
  pKi: 5.10
élastase leucocytaire
  protection: 58%
MMP-2 [3]
  inhibition at 1 µM: 18%
MMP-2 [3]; 10 µM
  hydrolyse des trousseaux collagéniques (observation): inhibait moins l'activité enzymatique
  inhibition at 10 µM: 40%
MMP-9 [4]
  inhibition at 1 µM: 10%
  inhibition at 10 µM: 24%
  inhibition de l'activité de la MMP-9 (observation): Cette inhibition est retrouvée

## CC/C=C/C=C/C=C/C=C/CCCCCCCC(=O)O [acide trans-parinarique]
MMP-9 [1]
  pKi: 5.72
MMP-2 [2]
  pKi: 4.62
MMP-9 [5]
  % de protection: 75%
  hydrolyse des fibres élastiques (observation): l'hydrolyse des fibres préélastiques du derme superficiel était diminuée
MMP-2 [3]; 1 µM
  hydrolyse des trousseaux collagéniques (observation): l'hydrolyse a été diminuée
MMP-2 [3]
  inhibition at 1 µM: 12%
MMP-2 [3]; 10 µM
  hydrolyse des trousseaux collagéniques (observation): l'hydrolyse était nettement diminuée
  inhibition at 10 µM: 56%
MMP-9 [4]
  inhibition at 1 µM: 16%
  inhibition at 10 µM: 48%
  inhibition de l'activité de la MMP-9 (observation): inhibe l'activité de celle-ci
MMP-2 [6]
  % de protection: 61%
  hydrolyse des trousseaux collagéniques (observation): hydrolyse des trousseaux collagéniques nettement moins marquées

## CCCCCCCC/C=C/CCCCCCCC(=O)O [acide élaïdique]
MMP-9 [1]
  pKi: 5.24
MMP-2 [2]
  pKi: 5.37
MMP-9 [5]
  % de protection: 98%
  hydrolyse des fibres élastiques (observation): l'hydrolyse des fibres élastiques matures du derme moyen par la MMP-9 était nettement diminuée
MMP-3
  pKi: 5.74
MMP-1
  pKi: 5.57
MMP-2 [6]
  % de protection: 32%
  hydrolyse des trousseaux collagéniques (observation): La même constatation a pu être faite
